The species entered for test [1] is Mus musculus. The experiment in a line: animal or person. The settings on record: DBA, iv.
Description: Analgesic activity in iv dosed DBA mouse by writhing assay
The species entered for test [2] is Mus musculus. Description: animal or person. The settings on record: DBA, iv. This is another data set of the same source.
Description: Analgesic activity in iv dosed DBA mouse by hot plate assay
The species named for test [3] is Mus musculus. The experiment in a line: animal or person. The settings on record: SHR, Tail, iv.
Description: Analgesic activity in iv dosed SHR mouse by tail flick assay
The species named for test [4] is Mus musculus. The experiment in a line: animal or person. Conditions: DBA, Tail, iv.
Description: Analgesic activity in iv dosed DBA mouse by tail flick assay
For test [5], the species on record is Mus musculus. Description: animal or person. The settings on record: SHR, iv.
Description: Analgesic activity in iv dosed SHR mouse by writhing assay
For test [6], the system named is Mus musculus. The experiment in a line: Analgesic activity in iv dosed DBA mouse by tail clip assay. The format is functional.
Test [7] is filed under the species Mus musculus. Description: animal or person. The settings on record: SHR, iv. This is another data set of the same source.
Description: Analgesic activity in iv dosed SHR mouse by tail clip assay
The species entered for test [8] is Mus musculus. The experiment in a line: animal or person. The settings on record: SHR, iv. This is another data set of the same source.
Description: Analgesic activity in iv dosed SHR mouse by hot plate assay

Results on one compound are retold here after ChEMBL document CHEMBL1138911 (Bioorg Med Chem Lett, 2006).

As usually defined, the ED50 is the dose at which the effect has come halfway, by size or by number of responders. A high value points to a need for a large dose. Consider `CO[C@@]12CC[C@@]3(C[C@@H]1[C@](C)(O)C(C)(C)C)[C@H]1Cc4ccc(O)c5c4[C@@]3(CCN1CC1CC1)[C@H]2O5` [BUPRENORPHINE], for which the 50% effective dose (ED50) in the test filed under Mus musculus [1] stood at 0.0295 mg/kg; in the test listed under Mus musculus [2], 0.195 mg/kg; in the test filed under Mus musculus [3] it was 0.0404 mg/kg; in the test filed under Mus musculus [4], 0.312 mg/kg; in the test filed under Mus musculus [5] it was 0.0223 mg/kg; in the test filed under Mus musculus [7], 0.0466 mg/kg. In the test listed under Mus musculus [8], this compound yielded an ED50 of 0.0233 mg/kg. In the test with Mus musculus [6], this compound returned an Efficacy of 46.7%.
